Measured values: US8372839B2, “Bipartite inhibitors of bacterial RNA polymerase” (priority 2005, dated 2013)
Starred links: 1 amine or outer side, 2 acyl side, 3 side chain; linkers in the order of their positions; H or OH if unused. Positions of bridges follow the written chain, without caps; N, C: chain ends. Non-standard residues stand in square brackets, D forms with d. Residues, ends and D or L forms follow the SMILES beside them. *: point of attachment. X2 = CO[C@H]1/C=C/O[C@@]2(C)Oc3c(C)c(O)c4c(O)c(cc(OCC(=O)NCCCCCCCCCCCCN*)c4c3C2=O)NC(=O)/C(C)=C\C=C\[C@H](C)[C@H](O)[C@@H](C)[C@@H](O)[C@@H](C)[C@H](OC(C)=O)[C@@H]1C; X1 = N=C(CCCSCC(=O)[*:3])NCCCC[C@H](N[*:1])C(=O)[*:2]

Legend:
[1] = molecular target: T1, Escherichia coli RNAP (Escherichia coli, UniProt P0A8T7+P0A8V2); experiment: biochemical; assay type: biochemical; settings: for inhibition of transcription (in words): transcription assay, RNAP and [Asn516]β-RNAP
T1 construct: made in house
Method: RNAP was prepared as described in Niu, et al. (1996) Cell 87, 1123-1134. [Asn516]β-RNAP, a strongly rifamycin-resistant RNAP derivative (see Jin, et al. (1988) J. Mol. Biol. 202, 45-58) was prepared in the same manner, except that plasmid pRL706-516N was used in place of plasmid pREII-NHα. [Plasmid pRL706-516N, which encodes C-terminally hexahistidine tagged [Asn516]β, was constructed from plasmid pRL706 (Severinov, et al. (1997) J. Biol. Chem. 272, 24137-24140) by use of site-directed mutagenesis (QuikChange Site-Directed Mutagenesis Kit; Stratagene).]
RNAP or [Asn516]β-RNAP (3 fmol; Example 3.1) and each test compound (250 fmol-100 pmol) were pre-equilibrated 30 min at 37° C. in 15 μl buffer A (50 mM Tris-HCl, pH 8.0, 100 mM KCl, 10 mM MgCl2, 1 mM dithiothreitol, 10 ug/ml bovine serum albumin, and 5% glycerol). To the reaction mixture, was added 1 μl of 1 μM DNA fragment comprising positions −60 to +46 of the bacteriophage T5 N25 promoter (1 pmol; prepared as in Revyakin, et al. (2006) Science, in press), and, following incubation 15 min at 37° C., RNA synthesis was initiated by addition of […] of 6.7 mM ATP and 30 μM α[^32P]-UTP (0.6 Bq/fmol). Following 10 min at 37° C., the reaction was terminated by addition of 10/j 80% formamide, 10 mM EDTA, 0.04% bromophenol blue, and 0.04% xylene cyanol. Reaction products were heated […] at 90° C. and were analyzed by urea-PAGE (Sambrook, et al. (2001) Molecular Cloning: A Laboratory Manual, CSHL Press, Cold Spring Harbor, N.Y.), and quantified using a storage-phosphor scanner.

[2] = test system: Escherichia coli strain D21 f2/tolC; experiment: Susceptibility assay (spot on top agar); assay type: cell-based; settings: for lowest concentration of test compound solution resulting in detectable inhibition of bacterial growth: 2.5 μl aliquots spotted, 12 h at 37° C.
Method: Aliquots (2.5 μl) of 1.56, 3.12, 6.25, 12.5, 25, 50, 100, 200, and 400 μM solutions of a test compound were spotted on plates containing Escherichia coli strain D21 f2/tolC (Fralick, et al. (1994) J. Bacteriol. 176, 6404-6406; ˜10^8 cells) in LB top agar (Sambrook, et al. (2001) Sambrook, et al. (2001) Molecular Cloning. A Laboratory Manual, CSHL Press, Cold Spring Harbor, N.Y.; 3.5 ml) overlaid on LB agar (Sambrook, et al. (2001) Sambrook, et al. (2001) Molecular Cloning: A Laboratory Manual, CSHL Press, Cold Spring Harbor, N.Y.; 25 ml).

[3] = molecular target: [Asn516]β-RNAP (Escherichia coli, UniProt P0A8T7+P0A8V2, D516N)
Method: Following 10 min at 37° C., the reaction was terminated by addition of 10/j 80% formamide, 10 mM EDTA, 0.04% bromophenol blue, and 0.04% xylene cyanol.

Row | Compound | inhibition of transcription (in words) [1] | lowest concentration of test compound solution resulting in detectable inhibition of bacterial growth [2] [µM] | other results
1 | CC[C@H](C)[C@H](NC(=O)CNC(=O)[C@@H](NC(=O)[C@H](Cc1ccccc1)NC(=O)[C@H](Cc1ccc(O)cc1)NC(=O)[C@@H]1CCC(=O)NCC(=O)NCC(=O)N[C@@H](C)C(=O)NCC(=O)N[C@@H](CCCCNC(=N)CCCSCC(=O)NCCCCCCCCCCCCNC(=O)COc2cc3c(O)c4c(O)c(C)c5c(c24)C(=O)[C@@](C)(O/C=C/[C@H](OC)[C@@H](C)[C@@H](OC(C)=O)[C@H](C)[C@H](O)[C@H](C)[C@@H](O)[C@@H](C)/C=C/C=C(/C)C(=O)N3)O5)C(=O)N[C@@H](C(C)C)C(=O)N2CCC[C@H]2C(=O)N1)C(C)C)C(=O)NCC(=O)N[C@H](C(=O)N1CCC[C@H]1C(=O)N[C@H](C(=O)N[C@@H](CO)C(=O)N[C@@H](Cc1ccccc1)C(=O)N[C@@H](Cc1ccc(O)cc1)C(=O)NCC(=O)O)[C@@H](C)CC)[C@@H](C)O [rifamicrocin 1-12, {rifamycin SV}—{CH2C(O)NH(CH2)12NHC(O)CH2S(CH2)3C(NH2^+)}-{[Lys5]microcin J25}] (GGAG[X1](X2)VPEYFVGIGTPISFYG-OH; lactam N-8 (inferred); C-terminus assumed) | potently to inhibit transcription | – | IC50 [1]: 2 nM
2 | CO[C@H]1/C=C/O[C@@]2(C)Oc3c(C)c([O-])c4c(O)c(cc(O)c4c3C2=O)NC(=O)/C(C)=C\C=C\[C@H](C)[C@H](O)[C@@H](C)[C@@H](O)[C@@H](C)[C@H](OC(C)=O)[C@@H]1C.[Na+] [rifamycin SV, reference compound] | – | 50 | –
3 | {Rifamycin SV}—{CH2C(O)NH(CH2)nNHC(O)CH2S(CH2)3C(NH2^+)}-{[Lys5]MccJ25} [rifamicrocin 1-6] | potently to inhibit transcription | – | –
4 | {Rifamycin SV}—{CH2C(O)NH(CH2)nNHC(O)CH2S(CH2)3C(NH2^+)}-{[Lys5]MccJ25} [rifamicrocin 1-8] | potently to inhibit transcription | – | –
5 | {Rifamycin SV}—{CH2C(O)NH(CH2)nNHC(O)CH2S(CH2)3C(NH2^+)}-{[Lys5]MccJ25} [rifamicrocin 1-10] | potently to inhibit transcription | 12.5 | potency on bacterial growth relative to rifamycin SV ([2]; vs rifamycin SV): ~4 times higher
6 | {rifamycin SV}—{CH2C(O)NH(CH2)10NHC(O)(CH2)2(C2N3)(CH2)4C(O)}-{[Lys5]microcin J25} [rifamicrocin 2-10] | potently to inhibit transcription | – | potency relative to prior-art rifamycin B, [Asn516]β-RNAP [3]: approximately 2 times higher
